Data taken from patent US5527828A, “Spin trap nitronyl hindered phenols” (priority 1995, dated 1996).
Like-named read-outs stand apart in the source and are kept apart here.

What was measured:
[1] = test system: rat liver microsomes; test: Inhibition of lipid peroxidation (LPO) initiated by tert-butoxyl radicals in rat liver microsomes, TBA test for MDA (Example 1); conditions: for relative efficiency normalized to 1.0 for PBN: from IC50 data of Example 1; for IC50: read-out: Inhibitor Concentration of 50% Inhibition (IC50), RLM (I), LPO initiated by tert-butoxyl radicals, 37° C., one hour, pH 7.4, average of 5 experiments, interpolated, estimated or measured
[2] = test system: rat brain microsomes; test: Inhibition of LPO in rat brain microsomes, TBA test for MDA production (Example 3); format: biochemical; conditions: for IC50: rat brain microsomes; for inhibition of LPO in these systems: conclusion in words on the data obtained
Protocol: Similar tests were performed with rat brain microsomes using the TBA test for MDA production as the result of LPO.

[3] = test system: rat liver microsomes; conditions: read-out: Inhibitor Concentration of 50% Inhibition (IC50); RLM (II); LPO initiated by NADPH/cytochrome-P450 metabolism of CCl4; average of 5 experiments; interpolated
[4] = test system: rat liver microsomes
[5] = value in parentheses, read-out: IC50 RBM (III)

Row | IC50 ([2]; RBM (III), TBA test for MDA) [µM] | IC50 [3] [µM] | IC50 [4] [µM] | IC50 [2, 5] [µM] | SMILES | relative efficiency normalized to 1.0 for PBN ([1]; rat liver microsomes) | IC50 [1] [µM] | effectiveness as inhibitor of LPO compared with BHT ([1]; conclusion in words, taking into account experimental precision) | better than BHT as an inhibitor of LPO ([1]; rat liver microsomes, versus BHT) | times more effective as an inhibitor of LPO than PBN ([1]; rat liver microsomes, versus PBN) | inhibition of LPO in these systems [2]
1 | 76 | 6500 | – | – | CC(C)(C)CC(C)(C)[N+]([O-])=Cc1ccccc1 [OPN, N-tert-octyl C-phenyl nitrone] | 24 | 462 | – | – | – | –
2 | – | – | 55 | – | Cc1cc(C(C)(C)C)c(O)c(C(C)(C)C)c1 [BHT, butylated hydroxy toulene, reference compound] | 2000 | 5.3 | – | – | – | –
3 | – | – | – | – | Cc1c(C)c2c(c(C)c1O)CCC(C)(CCCC(C)CCCC(C)CCCC(C)C)O2 (stereo not drawn) [Tocopherol, α-tocopherol, reference compound] | 354 | 30 | – | – | – | –
4 | 70 | 60 | – | – | Cc1cc(C=[N+]([O-])C(C)(C)CC(C)(C)C)cc(C)c1O [DMONP, 2,6-dimethyl-4-(N-tert-octyl) nitronyl phenol] | 646 | 16.4 | – | – | – | –
5 | 0.7 | 53 | – | 0.7 | CC(C)(C)c1cc(C=[N+]([O-])C(C)(C)C)cc(C(C)(C)C)c1O [DBBNP, 2,6-di-tert-butyl-4-(N-tert-butyl) nitronyl phenol] | 2466 | 4.3 | at least as good as BHT and probably better | about 20% | about 2000 times | very good inhibitors
6 | 600 | 710 | – | – | Cc1cc(C=[N+]([O-])C(C)(C)C)cc(C)c1O [DMBNP, 2,6-dimethyl-4-(N-tert-butyl) nitronyl phenol] | 46 | 230 | – | – | – | –
7 | 0.3 | 35 | – | 0.3 | CC(C)(C)CC(C)(C)[N+]([O-])=Cc1cc(C(C)(C)C)c(O)c(C(C)(C)C)c1 [DBONP, 2,6-di-tert-butyl-4-(N-tert-octyl) nitronyl phenol] | 1828 | 5.8 | – | – | – | very good inhibitors

Row | SMILES | IC50 ([2]; RBM (III), TBA test for MDA) [µM] | IC50 [3] [µM] | IC50 [4] [µM] | IC50 [2, 5] [µM] | relative efficiency normalized to 1.0 for PBN ([1]; rat liver microsomes) | IC50 [1] [µM] | effectiveness as inhibitor of LPO compared with BHT ([1]; conclusion in words, taking into account experimental precision) | better than BHT as an inhibitor of LPO ([1]; rat liver microsomes, versus BHT) | times more effective as an inhibitor of LPO than PBN ([1]; rat liver microsomes, versus PBN) | inhibition of LPO in these systems [2]
8 | CC(C)(C)[N+]([O-])=Cc1ccccc1 [PBN, α-phenyl t-butyl nitrone, reference compound] | 1000 | 17500 | – | – | 1.0 | 9800 | – | – | – | –
